The experiment deals with T1, human RXFP1 (Homo sapiens, UniProt Q9HBX9).
T1 construct: expressed in transfected cells
T1 sequence (Q9HBX9 1-757): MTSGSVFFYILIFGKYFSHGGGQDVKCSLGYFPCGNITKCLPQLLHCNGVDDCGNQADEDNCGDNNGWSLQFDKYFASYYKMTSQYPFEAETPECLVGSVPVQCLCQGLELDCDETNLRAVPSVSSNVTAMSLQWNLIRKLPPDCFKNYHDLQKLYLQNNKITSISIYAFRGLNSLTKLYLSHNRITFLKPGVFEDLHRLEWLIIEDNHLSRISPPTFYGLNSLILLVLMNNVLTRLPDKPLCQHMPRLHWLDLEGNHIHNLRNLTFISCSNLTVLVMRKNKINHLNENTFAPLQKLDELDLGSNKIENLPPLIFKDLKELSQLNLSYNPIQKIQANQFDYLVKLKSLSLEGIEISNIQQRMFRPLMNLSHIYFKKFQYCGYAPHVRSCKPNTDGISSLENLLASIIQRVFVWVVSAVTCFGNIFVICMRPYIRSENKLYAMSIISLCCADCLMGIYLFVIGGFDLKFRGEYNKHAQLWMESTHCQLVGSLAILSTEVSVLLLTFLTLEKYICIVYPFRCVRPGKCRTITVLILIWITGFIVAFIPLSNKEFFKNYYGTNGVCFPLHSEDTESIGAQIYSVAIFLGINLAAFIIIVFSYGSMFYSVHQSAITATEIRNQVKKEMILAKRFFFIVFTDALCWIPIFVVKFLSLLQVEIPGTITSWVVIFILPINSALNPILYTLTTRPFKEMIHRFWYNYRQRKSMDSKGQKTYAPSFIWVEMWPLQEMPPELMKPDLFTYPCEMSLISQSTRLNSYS
The experiment in a line: RXFP1 cAMP assay (hRXFP1 HEK293 cAMP assay, HTRF). The note with it: HEK293 cells stably expressing human RXFP1, 30 min at room temperature, read-out: cAMP hRXFP1 HEK293 Assay EC50. In kind it is cell-based. The essentials:
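Intracellular cAMP was read by HTRF, with potency fitted to a 4-parameter logistic curve. Compound exposure (0.010 nM–50 μM final, 2% DMSO) lasted 30 min at room temperature. Cells were hRXFP1-HEK293 at 1500 per well in IBMX-containing (0.5 mM) HEPES-buffered HBSS.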

Usually EC50 stands for the midpoint of the concentration-response curve. As to `COc1ccc(-c2ccc(C(=O)O)cc2F)cc1C(=O)N[C@@H]1C2CCC(/C2=C/c2ccccc2)[C@@H]1C(=O)Nc1ccc(F)c(C(F)(F)F)c1` (stereo partly shown) [compound 169], the EC50 was determined as 0.044 µM.

As to `CNC(=O)OC(C(=O)O)c1ccc(F)c(-c2ccc(OC)c(C(=O)N[C@@H]3C4CCC(/C4=C/C(F)(F)F)[C@@H]3C(=O)Nc3ccc(F)c(C(F)(F)F)c3)c2)c1` (stereo partly shown) [compound 180], the EC50 was determined as 0.005 µM.

With `COc1ccc(-c2cc(C(O)C(=O)O)ccc2F)cc1C(=O)NC1C2CCC(/C2=C/C2CCN(Cc3ccc(Cl)cc3)C2)C1C(=O)Nc1ccc(F)c(C(F)(F)F)c1` (stereo not shown) [compound 357], the 50% effective concentration (EC50) worked out at 0.211 µM.

For `COc1ccc(C2=NOC3CC(C#N)CC23)cc1C(=O)N[C@H]1[C@@H](C(=O)N[C@H](C)C2(C)CC2)[C@H]2CC[C@@H]1/C2=C\C1CC1` (stereo partly shown) [compound 760], the EC50 turned out to be 0.0012 µM.

Take `COC(=O)c1cnn2cc(-c3ccc(OC)c(C(=O)N[C@@H]4C5CCC(/C5=C/C(F)(F)F)[C@@H]4C(=O)Nc4ccc(F)c(C(F)(F)F)c4)c3)ccc12` (stereo partly shown) [compound 313]: the EC50 came out at 0.09 µM.

With `COc1ccc(C2=NOC(CCO)C2CCO)cc1C(=O)N[C@H]1[C@@H](C(=O)Nc2ccc(F)c(C(F)(F)F)c2)[C@H]2CC[C@@H]1/C2=C\C1CC1` (stereo partly shown) [compound 501], the EC50 came to 0.0116 µM.

With `COc1ccc(C2=NOC3COCC23)cc1C(=O)N[C@H]1[C@@H](C(=O)N[C@@H]2CCCc3ccccc32)[C@H]2CC[C@@H]1/C2=C\C1CC1` (stereo partly shown) [compound 538], the 50% effective concentration (EC50) was determined as 0.0263 µM.

`COc1cc(F)c(F)cc1C(=O)N[C@@H]1C2CCC(/C2=C/c2ccc(C#N)cc2)[C@@H]1C(=O)Nc1ccc(F)c(C(F)(F)F)c1` (stereo partly shown) [compound 62]: the half-maximal effective concentration (EC50) came to 0.71 µM.

Turning to `COC(=O)NC(C(=O)O)c1ccc(F)c(-c2ccc(OC)c(C(=O)N[C@@H]3C4CCC(/C4=C/C(F)(F)F)[C@@H]3C(=O)Nc3ccc(F)c(C(F)(F)F)c3)c2)c1` (stereo partly shown) [compound 185], the EC50 worked out at 0.015 µM.

As to `CNC(=O)c1ccc(F)c(-c2ccc(OC)c(C(=O)N[C@@H]3C4CCC(/C4=C/C4CC4)[C@@H]3C(=O)Nc3ccc(F)c(C(F)(F)F)c3)c2)c1` (stereo partly shown) [Example 166], the EC50 came to 0.011 µM.

For `COc1ccc(C2=NOC3COCC23)cc1C(=O)N[C@H]1[C@@H](C(=O)NCC2(C)CC2)[C@H]2CC[C@@H]1/C2=C\C1CC1` (stereo partly shown) [compound 522], the concentration giving a half-maximal response (EC50) is 0.0211 µM.

Turning to `COc1ccc(-c2cc(CC(=O)O)ccc2F)cc1C(=O)N[C@@H]1C2CCC(/C2=C/C2CC2)[C@@H]1C(=O)Nc1ccc(F)c(C(F)(F)F)c1` (stereo partly shown) [compound 189], the EC50 is 0.01 µM.

As to `C=C/C=C1\C2CCC1[C@H](C(=O)Nc1ccc(F)c(C(F)(F)F)c1)[C@@H]2NC(=O)c1cc(-c2cc(C(=O)O)ccc2F)ccc1OC` (stereo partly shown) [compound 158], the EC50 was determined as 0.1 µM.

Consider `COc1ccc(-c2cc(C(=O)O)ccc2F)cc1C(=O)N[C@@H]1C2CCC(/C2=C/C2CC2)[C@@H]1C(=O)Nc1cccc(-c2csnn2)c1` (stereo partly shown) [compound 271], for which the concentration giving a half-maximal response (EC50) turned out to be 0.664 µM.

Take `COc1ccc(-c2ccc3[nH]cc(C(=O)O)c3c2)cc1C(=O)N[C@@H]1C2CCC(/C2=C/C(F)(F)F)[C@@H]1C(=O)Nc1ccc(F)c(C(F)(F)F)c1` (stereo partly shown) [compound 295]: the EC50 came out at 0.053 µM.

For the compound `COc1cc(F)c(F)cc1C(=O)N[C@@H]1C2CCC(/C2=C/c2ccccc2)[C@@H]1C(=O)Nc1cccc(S(C)(=O)=O)c1` (stereo partly shown) [compound 139], the EC50 amounted to 0.55 µM.

As for `COc1ccc(C2=CCCNC2)cc1C(=O)N[C@@H]1C2CCC(C2=C(C)C)[C@@H]1C(=O)Nc1ccc(F)c(C(F)(F)F)c1` (stereo partly shown) [Example 140], the concentration giving a half-maximal response (EC50) is 0.7 µM.

Take `CCC(NC(=O)[C@@H]1[C@H](NC(=O)c2cc(C3=NOC4COCC34)ccc2OC)[C@@H]2CC[C@H]1/C2=C/C1CC1)c1ccccc1C` (single isomer, unassigned) [compound 656]: the EC50 is 0.311 µM.

With `COc1ccc(-c2cc(C(OC(=O)Nc3ccccc3)C(=O)O)ccc2F)cc1C(=O)N[C@H]1[C@@H](C(=O)Nc2ccc(F)c(C(F)(F)F)c2)[C@H]2CC[C@@H]1/C2=C\C1CC1` (stereo partly shown) [compound 965], the half-maximal effective concentration (EC50) was 0.0048 µM.

With `COc1ccc(-c2cc(C(=O)NS(C)(=O)=O)ccc2F)cc1C(=O)N[C@@H]1C2CCC(/C2=C/Br)[C@@H]1C(=O)Nc1ccc(F)c(C(F)(F)F)c1` (stereo partly shown) [compound 161], the EC50 turned out to be 0.11 µM.

In the case of `COc1ccc(-c2cc(S(=O)(=O)NC(C)(C)C)ccc2F)cc1C(=O)N[C@H]1[C@@H](C(=O)Nc2ccc(F)c(C(F)(F)F)c2)[C@H]2CC[C@@H]1/C2=C\C1CCCC1` [compound 958], the EC50 amounted to 0.0009 µM.

Consider `COc1ccc(-c2ncc(CO)s2)cc1C(=O)N[C@H]1[C@@H](C(=O)Nc2ccc(F)c(C(F)(F)F)c2)[C@H]2CC[C@@H]1/C2=C\C1CCCC1` [compound 750], for which the concentration for a half-maximal effect (EC50) is 0.0035 µM.

`COc1ccc(C2=NOC(C3(O)CCC3)C2)cc1C(=O)N[C@H]1[C@@H](C(=O)Nc2ccc(F)c(C(F)(F)F)c2)[C@H]2CC[C@@H]1/C2=C\C1CC1` (single isomer, unassigned) [compound 603]: the EC50 stood at 0.112 µM.

For the compound `COc1ccc(-c2cc(C(OC(=O)NC3CCC3)C(F)F)ccc2F)cc1C(=O)N[C@H]1[C@@H](C(=O)Nc2ccc(F)c(C(F)(F)F)c2)[C@H]2CC[C@@H]1/C2=C\C1CC1` (single isomer, unassigned) [Example 230], the concentration giving a half-maximal response (EC50) is 0.001 µM.

Consider `COc1c(F)cc(C2=NOC3CC(C)(CO)CC23)cc1C(=O)N[C@H]1[C@@H](C(=O)N[C@H](C)C2(C)CC2)[C@H]2CC[C@@H]1/C2=C\C1CC1` (stereo partly shown) [compound 961], for which the EC50 is 0.001 µM.

As to `COc1ccc(C2=NOC3CN(CCO)CC23)cc1C(=O)N[C@H]1[C@@H](C(=O)Nc2ccc(F)c(C(F)(F)F)c2)[C@H]2CC[C@@H]1/C2=C\C1CC1` (single isomer, unassigned) [compound 455], the EC50 turned out to be 0.002 µM.

On to `COc1ccc(-c2cc(C3=NOC4CC(CO)CC34)ccc2F)cc1C(=O)N[C@H]1[C@@H](C(=O)Nc2ccc(F)c(C(F)(F)F)c2)[C@H]2CC[C@@H]1/C2=C\C1CC1` (stereo partly shown) [compound 954], for which the 50% effective concentration (EC50) was found to be 0.0053 µM.

As for `COc1ccc(C2=NOC3COCC23)cc1C(=O)N[C@H]1[C@@H](C(=O)Nc2cc(C(F)(F)F)c(F)cc2F)[C@H]2CC[C@@H]1/C2=C\C1CC1` (stereo partly shown) [compound 767], the EC50 worked out at 0.003 µM.

On to `COc1ccc(C2CC3CN(CCCO)C(=O)C32)cc1C(=O)N[C@H]1[C@@H](C(=O)Nc2ccc(F)c(C(F)(F)F)c2)[C@H]2CC[C@@H]1/C2=C\C1CC1` (single isomer, unassigned) [compound 734], for which the EC50 was found to be 0.023 µM.

With `COc1ccc(-c2cc([C@H](OC(=O)NC3CCC3)C(F)(F)F)ccc2F)cc1C(=O)N[C@@H]1C2CCC(/C2=C/CCC(F)(F)F)[C@@H]1C(=O)Nc1ccc(F)c(C(F)(F)F)c1` (stereo partly shown) [compound 923], the 50% effective concentration (EC50) came out at 0.0047 µM.

Consider `COc1ccc(C2=NOC3(C2)CC(CO)C3)cc1C(=O)N[C@H]1[C@@H](C(=O)Nc2ccc(F)c(C(F)(F)F)c2)[C@H]2CC[C@@H]1/C2=C\C1CC1` (stereo partly shown) [Example 511], for which the EC50 worked out at 0.0153 µM.

With `COc1ccc(C2=NOC3COCC23)cc1C(=O)N[C@H]1[C@@H](C(=O)NC2(Cc3ccccc3)CC2)[C@H]2CC[C@@H]1/C2=C\C1CC1` (stereo partly shown) [compound 653], the EC50 stood at 0.285 µM.

Regarding `COc1ccc(-c2ccc(N3CCOCC3)nc2)cc1C(=O)N[C@@H]1C2CCC(/C2=C/C2CC2)[C@@H]1C(=O)Nc1ccc(F)c(C(F)(F)F)c1` (stereo partly shown) [compound 250], the concentration giving a half-maximal response (EC50) worked out at 0.012 µM.

Regarding `COc1ccc(-c2cc(C(OC(=O)Nc3ccccc3)C(=O)O)ccc2F)cc1C(=O)N[C@@H]1C2CCC(/C2=C/C2CC2)[C@@H]1C(=O)Nc1ccc(F)c(C(F)(F)F)c1` (stereo partly shown) [Example 177], the half-maximal effective concentration (EC50) was 0.005 µM.

On to `COc1c(F)cc(C2=NOC3CC(CO)CC23)cc1C(=O)N[C@H]1[C@@H](C(=O)NC23CC(C)(C2)C3)[C@H]2CC[C@@H]1/C2=C\C1CC1` (stereo partly shown) [compound 773], for which the EC50 was 0.0039 µM.

`COc1ccc(C2CN(C(=O)N3CCC(O)CC3)C2)cc1C(=O)N[C@H]1[C@@H](C(=O)Nc2ccc(F)c(C(F)(F)F)c2)[C@H]2CC[C@@H]1/C2=C\C1CC1` [compound 527]: the concentration for a half-maximal effect (EC50) is 0.0224 µM.

As for `COc1ccc(-c2ccn(CC(=O)O)n2)cc1C(=O)N[C@@H]1C2CCC(/C2=C/C(F)(F)F)[C@@H]1C(=O)Nc1ccc(F)c(C(F)(F)F)c1` (stereo partly shown) [compound 342], the EC50 turned out to be 0.39 µM.

Regarding `COc1ccc(C2=NOC(C)(C(=O)O)C2)cc1C(=O)N[C@@H]1C2CCC(/C2=C/C2CC2)[C@@H]1C(=O)Nc1ccc(F)c(C(F)(F)F)c1` (stereo partly shown) [compound 421], the 50% effective concentration (EC50) is 0.831 µM.

For the compound `COc1ccc(C2=NOC3CC(CO)CC23)cc1C(=O)N[C@H]1[C@@H](C(=O)NC2CCCC2)[C@H]2CC[C@@H]1/C2=C\C1CC1` (stereo partly shown) [compound 493], the concentration giving a half-maximal response (EC50) was 0.0095 µM.

With `COc1ccc(C2=NO[C@@H]3C[C@H](C(F)(F)F)CN23)cc1C(=O)N[C@H]1[C@@H](C(=O)Nc2ccc(F)c(C(F)(F)F)c2)[C@H]2CC[C@@H]1/C2=C\C1CC1` [compound 847], the EC50 was determined as 0.0025 µM.

These data come from patent US20250221966A1, “RXFP1 AGONISTS” (BRISTOL-MYERS SQUIBB COMPANY, priority 2021, published 2025).
